# From article PMC12752606, “METTL10‐Mediated PIAS3 Methylation Links Purine Metabolism to Gastric Cancer Progression” (Advanced Science, 2025)
# pIC50: −log10 of the molar value.
# Experiments:
# [1] = Acute toxicity, single intraperitoneal injection at escalating doses (LD50); conditions: ICR, mouse, in vivo, ip, ICR mice, 24 h survival
# Procedure: For the acute toxic study, 8‐week‐old ICR mice (n = 6 per group) were administered a single intraperitoneal injection of LZQ‐02‐023‐01 at escalating doses. A vehicle‐treated group served as control. Survival was monitored continuously for 24 h postadministration. Additionally, another cohort of ICR mice (n = 5 per group) received a single intraperitoneal dose of LZQ‐02‐023‐01 at 125 mg/kg and were subsequently monitored daily for 7 days for clinical signs of toxicity, behavioral changes, body weight fluctuations, and mortality. At the conclusion of the observation period, animals were euthanized and subjected to a comprehensive gross necropsy. Major organs, including the liver, kidney, heart, lung, and spleen, were harvested for histopathological examination. For the chronic toxic study, 8‐week‐old ICR mice (n = 5 per group) received daily intraperitoneal injections of LZQ‐02‐023‐01 at a therapeutic dose of 40 mg/kg for 14 consecutive days. A vehicle‐treated group was included as a control. Throughout the treatment period, animals were monitored daily for clinical signs of toxicity and weighed every 2 days. At study termination, blood samples were collected for hematological and biochemical analyses. […]
# MKN45 xenografts = assay: MKN45 subcutaneous xenograft model; type: in vivo, BALB/c nude mice; conditions: 20 or 40 mg/kg i.p. once daily for 2 weeks
# Procedure: For the subcutaneous tumor model, 5 × 10⁶ MKN45 cells suspended in 100 µL of sterile PBS were injected subcutaneously into the flanks of BALB/c nude mice. When tumor volumes reached approximately 50 mm^3, mice were randomized into three groups (Vehicle control, LZQ‐02‐023‐01 at 20 mg/kg or 40 mg/kg, n = 10 per group). All treatments were administered via intraperitoneal injection once daily for 14 consecutive days. Tumor volumes were measured every 2 days using calipers and calculated using the formula: volume = [length × (width[2])]/2. Mice were sacrificed on day 24 for endpoint analyses. For genetically engineered mouse models (GEMMs), 25‐week‐old K19‐C2mE mice were randomized into Vehicle control (n = 8) and LZQ‐02‐023‐01 treatment (40 mg/kg, n = 8) groups. Both groups received daily intraperitoneal injections for 28 consecutive days. Similarly, 8‐week‐old Cldn18‐AT mice were induced with tamoxifen (100 mg/kg, T5648, Sigma) and, 2 weeks post‐induction, randomized into Vehicle (n = 6) and LZQ‐02‐023‐01 (40 mg/kg, n = 6) treatment groups. Treatments were administered daily via intraperitoneal injection for 28 days.
# Paraffin sections were initially placed in an oven at 65 °C for 30 min to melt the paraffin. The slides were then immersed in two consecutive xylene baths for 10 min each to dewax the tissue, followed by hydration through a series of graded ethanol solutions. […]
# G9A = G9A (Homo sapiens, UniProt Q96KQ7); assay: Off-target methyltransferase profiling (MTase-Glo); type: biochemical
# Procedure: (§1) To evaluate the off‐target effects of LZQ‐02‐023‐01 on methyltransferase activity, a panel of enzymes was assessed using the MTase‐Glo Methyltransferase Assay (Promega), following the manufacturer's instructions. The assay was performed by ICE Bioscience Inc. Briefly, LZQ‐02‐023‐01 was serially diluted 4‐fold in DMSO to generate a 10‐point concentration gradient, and the resulting solutions were dispensed into 384‐well white assay plates using an Echo acoustic liquid handler (Labcyte). Plates were centrifuged at 1000 rpm for 1 min to ensure even compound distribution. Following a 10‐min preincubation at 25 °C, 2 µL of a substrate solution containing S‐adenosylmethionine (SAM) and the specific methyltransferase substrate (Table S7, Supporting Information) was added to each well. After a brief centrifugation, plates were incubated at 25 °C for 180 min to allow the enzymatic methylation reaction to proceed. Subsequently, 1 µL of MTase‐Glo reagent was added, followed by centrifugation and incubation at 25 °C for 45 min. Then, 5 µL of MTase‐Glo detection solution was introduced into each well, and the plates were incubated for an additional 45 min at 25 °C after centrifugation.
# (§2) Luminescence signals were directly proportional to methyltransferase activity, were recorded using a microplate reader (BMG LABTECH). Percent inhibition was calculated by normalizing luminescence intensities of compound‐treated wells to DMSO‐treated controls, and IC50 values were calculated using GraphPad Prism 8 software.
# EZH2 [Y641H] = EZH2 [Y641H] (Homo sapiens, UniProt Q15910, Y641H); assay: Off-target methyltransferase profiling (MTase-Glo); type: biochemical
# Procedure: as §1, §2
# PRMT4 = PRMT4 (Homo sapiens, UniProt Q86X55); assay: Off-target methyltransferase profiling (MTase-Glo); type: biochemical
# Procedure: as §1, §2
# NSD2 = NSD2 (Homo sapiens, UniProt O96028); assay: Off-target methyltransferase profiling (MTase-Glo); type: biochemical
# Procedure: as §1, §2
# SMYD2 = SMYD2 (Homo sapiens, UniProt Q9NRG4); assay: Off-target methyltransferase profiling (MTase-Glo); type: biochemical
# Procedure: as §1, §2
# MKN45 and AGS cells = assay: Colony formation assay; type: cell-based; conditions: 10 and 20 µM
# Procedure: Cells (1000 cells/well) were seeded in six‐well plates and provided with fresh culture medium every 3 days. After 14 days of incubation, the medium was removed, and the cells were gently washed three times with room‐temperature PBS. The cells were then fixed with 1 mL of 4% paraformaldehyde per well for 15 min. Next, 1 mL of 0.1% crystal violet solution was added to each well and incubated for 10 min to stain the cells. The crystal violet solution was drained, and the wells were rinsed with running water to remove excess stain, followed by air drying and photography.
# Chain of EZH2 [Y641H] (Q15910 whole entry Y641H): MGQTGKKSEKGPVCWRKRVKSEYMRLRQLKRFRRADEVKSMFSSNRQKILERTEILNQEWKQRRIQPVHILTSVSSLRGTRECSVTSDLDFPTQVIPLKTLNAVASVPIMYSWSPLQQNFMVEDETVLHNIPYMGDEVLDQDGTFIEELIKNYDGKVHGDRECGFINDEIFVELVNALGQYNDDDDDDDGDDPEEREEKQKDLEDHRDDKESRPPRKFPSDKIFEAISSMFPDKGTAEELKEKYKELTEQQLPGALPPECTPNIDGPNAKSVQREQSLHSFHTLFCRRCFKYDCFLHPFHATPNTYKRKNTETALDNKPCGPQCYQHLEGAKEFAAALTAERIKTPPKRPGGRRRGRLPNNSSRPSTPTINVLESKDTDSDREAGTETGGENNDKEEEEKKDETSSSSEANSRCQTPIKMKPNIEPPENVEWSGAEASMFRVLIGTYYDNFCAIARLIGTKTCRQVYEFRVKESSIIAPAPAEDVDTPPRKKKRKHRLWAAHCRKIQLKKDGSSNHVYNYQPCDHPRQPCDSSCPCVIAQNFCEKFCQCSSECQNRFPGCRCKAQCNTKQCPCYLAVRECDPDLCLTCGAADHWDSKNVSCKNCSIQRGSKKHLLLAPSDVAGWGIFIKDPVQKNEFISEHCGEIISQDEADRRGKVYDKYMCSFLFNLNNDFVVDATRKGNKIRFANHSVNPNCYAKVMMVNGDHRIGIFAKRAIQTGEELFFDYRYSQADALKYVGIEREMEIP
# Chain of EZH2 [Y641H] (O75530 whole entry partner): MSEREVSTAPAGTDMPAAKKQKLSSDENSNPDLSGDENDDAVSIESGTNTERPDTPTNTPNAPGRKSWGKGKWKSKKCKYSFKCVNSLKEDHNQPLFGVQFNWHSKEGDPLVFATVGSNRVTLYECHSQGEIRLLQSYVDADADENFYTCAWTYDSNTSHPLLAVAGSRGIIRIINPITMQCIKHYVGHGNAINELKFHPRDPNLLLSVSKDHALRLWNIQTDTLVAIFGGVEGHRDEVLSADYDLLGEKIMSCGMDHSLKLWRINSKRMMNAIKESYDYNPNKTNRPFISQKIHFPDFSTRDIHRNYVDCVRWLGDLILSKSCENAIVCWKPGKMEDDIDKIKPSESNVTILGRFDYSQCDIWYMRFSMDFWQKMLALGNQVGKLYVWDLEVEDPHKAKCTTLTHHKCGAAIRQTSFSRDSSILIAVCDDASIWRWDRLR
# Chain of EZH2 [Y641H] (Q15022 whole entry partner): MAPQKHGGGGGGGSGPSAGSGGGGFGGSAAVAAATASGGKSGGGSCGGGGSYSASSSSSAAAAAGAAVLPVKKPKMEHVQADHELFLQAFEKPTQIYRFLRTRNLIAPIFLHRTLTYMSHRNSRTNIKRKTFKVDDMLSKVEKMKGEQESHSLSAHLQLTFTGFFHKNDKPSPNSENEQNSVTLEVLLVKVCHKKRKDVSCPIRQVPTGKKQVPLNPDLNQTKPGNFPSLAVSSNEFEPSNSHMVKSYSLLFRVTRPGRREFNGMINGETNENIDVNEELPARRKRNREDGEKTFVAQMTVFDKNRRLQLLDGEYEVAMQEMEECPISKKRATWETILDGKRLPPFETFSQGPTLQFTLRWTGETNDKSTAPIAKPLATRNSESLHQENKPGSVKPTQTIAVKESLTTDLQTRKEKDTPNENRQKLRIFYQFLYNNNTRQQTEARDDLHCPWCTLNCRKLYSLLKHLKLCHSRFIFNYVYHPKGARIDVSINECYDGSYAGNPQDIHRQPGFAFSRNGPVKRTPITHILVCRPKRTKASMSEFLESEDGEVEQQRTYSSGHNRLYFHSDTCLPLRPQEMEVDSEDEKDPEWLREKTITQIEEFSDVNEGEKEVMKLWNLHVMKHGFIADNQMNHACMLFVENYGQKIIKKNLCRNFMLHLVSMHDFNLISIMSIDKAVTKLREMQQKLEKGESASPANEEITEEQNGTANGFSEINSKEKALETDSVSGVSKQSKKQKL
# Chain of EZH2 [Y641H] (Q09028 whole entry partner): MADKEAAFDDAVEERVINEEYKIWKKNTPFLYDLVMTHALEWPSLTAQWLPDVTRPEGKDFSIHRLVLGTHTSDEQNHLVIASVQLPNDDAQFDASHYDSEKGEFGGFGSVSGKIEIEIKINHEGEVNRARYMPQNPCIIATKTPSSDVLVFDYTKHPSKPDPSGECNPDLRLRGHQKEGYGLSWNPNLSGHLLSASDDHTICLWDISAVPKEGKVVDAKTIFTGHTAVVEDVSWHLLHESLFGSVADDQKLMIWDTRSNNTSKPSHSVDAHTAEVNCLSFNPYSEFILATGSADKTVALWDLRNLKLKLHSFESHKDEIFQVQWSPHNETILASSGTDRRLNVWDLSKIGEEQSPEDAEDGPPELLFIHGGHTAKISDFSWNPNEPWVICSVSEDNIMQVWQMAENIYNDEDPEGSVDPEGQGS
# Chain of NSD2 (O96028 whole entry, species assumed): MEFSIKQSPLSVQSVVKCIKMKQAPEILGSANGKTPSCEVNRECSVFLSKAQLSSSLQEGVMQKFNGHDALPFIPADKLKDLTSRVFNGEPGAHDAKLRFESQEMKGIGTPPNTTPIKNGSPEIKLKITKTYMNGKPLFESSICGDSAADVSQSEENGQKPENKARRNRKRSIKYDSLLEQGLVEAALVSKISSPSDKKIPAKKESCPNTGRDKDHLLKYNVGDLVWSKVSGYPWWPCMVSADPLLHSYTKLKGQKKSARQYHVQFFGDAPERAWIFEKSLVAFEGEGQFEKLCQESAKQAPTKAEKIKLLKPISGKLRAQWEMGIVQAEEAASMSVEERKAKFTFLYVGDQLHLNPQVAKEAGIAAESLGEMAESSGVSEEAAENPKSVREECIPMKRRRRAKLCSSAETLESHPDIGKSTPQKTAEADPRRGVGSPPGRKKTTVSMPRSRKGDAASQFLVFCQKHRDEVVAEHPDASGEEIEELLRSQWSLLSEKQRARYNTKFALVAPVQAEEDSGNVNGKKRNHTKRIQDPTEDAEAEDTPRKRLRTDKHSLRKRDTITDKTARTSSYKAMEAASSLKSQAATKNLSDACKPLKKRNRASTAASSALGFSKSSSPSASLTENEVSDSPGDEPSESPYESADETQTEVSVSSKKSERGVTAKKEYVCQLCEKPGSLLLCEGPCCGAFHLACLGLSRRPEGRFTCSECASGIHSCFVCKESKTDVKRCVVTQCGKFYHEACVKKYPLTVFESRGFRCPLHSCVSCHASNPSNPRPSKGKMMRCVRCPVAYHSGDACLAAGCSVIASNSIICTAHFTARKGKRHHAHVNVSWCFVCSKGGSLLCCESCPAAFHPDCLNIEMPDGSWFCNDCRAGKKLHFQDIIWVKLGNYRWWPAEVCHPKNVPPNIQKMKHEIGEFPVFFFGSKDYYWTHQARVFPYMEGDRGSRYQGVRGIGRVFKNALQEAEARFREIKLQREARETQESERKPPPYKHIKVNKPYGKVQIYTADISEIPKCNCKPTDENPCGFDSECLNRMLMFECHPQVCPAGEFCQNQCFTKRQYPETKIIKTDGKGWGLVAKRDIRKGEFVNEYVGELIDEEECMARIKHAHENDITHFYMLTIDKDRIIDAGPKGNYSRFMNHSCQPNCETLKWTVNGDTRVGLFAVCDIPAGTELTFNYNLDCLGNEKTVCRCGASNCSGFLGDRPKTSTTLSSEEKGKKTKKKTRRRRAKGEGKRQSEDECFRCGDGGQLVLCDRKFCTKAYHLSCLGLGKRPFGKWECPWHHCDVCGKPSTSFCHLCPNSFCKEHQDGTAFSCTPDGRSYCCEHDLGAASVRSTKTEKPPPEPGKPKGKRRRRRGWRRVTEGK
# Chain of SMYD2 (Q9NRG4 whole entry, species assumed): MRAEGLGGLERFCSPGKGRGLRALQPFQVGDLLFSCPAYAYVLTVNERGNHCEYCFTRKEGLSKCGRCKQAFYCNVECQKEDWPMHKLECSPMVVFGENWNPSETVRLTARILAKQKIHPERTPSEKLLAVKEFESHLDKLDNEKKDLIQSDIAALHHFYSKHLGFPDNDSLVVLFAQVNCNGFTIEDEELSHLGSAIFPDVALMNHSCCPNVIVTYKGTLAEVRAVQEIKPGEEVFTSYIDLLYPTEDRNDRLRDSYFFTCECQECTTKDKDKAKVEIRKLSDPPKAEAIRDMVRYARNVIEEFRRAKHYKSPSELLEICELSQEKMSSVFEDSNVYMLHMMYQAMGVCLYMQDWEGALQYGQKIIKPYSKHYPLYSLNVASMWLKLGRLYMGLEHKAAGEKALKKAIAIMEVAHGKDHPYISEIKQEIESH
# Chain of PRMT4 (Q86X55 whole entry, species assumed): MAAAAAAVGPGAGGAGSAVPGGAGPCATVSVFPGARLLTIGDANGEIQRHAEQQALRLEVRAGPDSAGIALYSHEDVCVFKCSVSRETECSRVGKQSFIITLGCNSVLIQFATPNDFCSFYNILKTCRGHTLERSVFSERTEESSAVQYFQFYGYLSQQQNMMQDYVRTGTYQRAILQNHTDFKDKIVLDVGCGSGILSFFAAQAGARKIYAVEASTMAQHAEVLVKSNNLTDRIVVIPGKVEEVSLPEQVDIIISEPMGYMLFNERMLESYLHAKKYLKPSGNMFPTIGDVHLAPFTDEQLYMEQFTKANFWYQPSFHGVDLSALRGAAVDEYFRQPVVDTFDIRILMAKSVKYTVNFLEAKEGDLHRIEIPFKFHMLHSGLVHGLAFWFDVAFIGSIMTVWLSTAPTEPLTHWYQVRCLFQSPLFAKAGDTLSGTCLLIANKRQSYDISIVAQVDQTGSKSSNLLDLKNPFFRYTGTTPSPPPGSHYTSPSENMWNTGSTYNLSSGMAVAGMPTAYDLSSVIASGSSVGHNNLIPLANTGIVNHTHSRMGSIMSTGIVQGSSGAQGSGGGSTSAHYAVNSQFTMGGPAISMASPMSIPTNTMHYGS
smiles,measurement,setting,value
"Cc1ccc(Nc2ncc3c(n2)N(C)C(=O)N(c2cccc(N)c2)C3)cn1 [LZQ-02-023-01, Three‐(3‐aminophenyl)‐1‐methyl‐7‐((6‐methylpyridin‐3‐yl)amino)‐3,4‐dihydropyrimido [4,5‐d] pyrimidin‐2 (1H)‐one]",LD50 at 24 h,[1],213 mg/kg
same,Growth of xenografts derived from MKN45 cells,MKN45 xenografts,significant reduction
same,"Ki-67 expression, PIAS3-K442 methylation and MITF in xenografts",MKN45 xenografts,significantly decreased
same,pIC50,G9A,4.41
same,pIC50,EZH2 [Y641H],5.46
same,pIC50,PRMT4,4.72
same,pIC50,NSD2,5.02
same,pIC50,SMYD2,5.04
same,GC cell proliferation (colony formation),MKN45 and AGS cells,significantly inhibited
